Test results: US6673938B1, “Substituted pyridine herbicides” (Syngenta Participations AG, priority 1998, dated 2004)

Experiments:
[1] = system: Monocotyledonous and dicotyledonous test plants; assay: Post-emergence herbicidal action; assay type: in vivo; conditions: 2000 g/ha, sprayed in 4- to 6-leaf stage, evaluated after approximately 18 days, nine-step scale
Outline: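 Scoring uses a 1–9 scale (1 complete damage, 9 no effect), read roughly 18 days post-application. Compounds were applied post-emergence at 4–6 leaves, as aqueous suspension (25% wettable powder) or emulsion (25% emulsion concentrate), at 250 g or 2 kg a.i./ha in 500 l water/ha.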

[2] = system: Monocotyledonous and dicotyledonous test plants; assay: Herbicidal action before emergence of the plants (pre-emergence action); assay type: in vivo; conditions: 2000 g/ha, evaluated after 3 weeks, nine-step scale
Outline: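 Sprayed onto soil immediately after sowing as WP suspension or EC emulsion at 2 kg or 250 g a.i./ha (500 l water/ha). Greenhouse growth for 3 weeks, then scored on a nine-step scale (1 = complete damage, 9 = no effect).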

Cc1nc(C(F)(F)F)ccc1C(=O)C1=C(O)CCCC1=O [Compound A2-B1, 3-hydroxy-2-(2-methyl-6-trifluoromethylpyridine-3-carbonyl)cyclohex-2-enone]
melting point: 90 to 92 °C | Post-emergence action, Ipomoea ([1]; Ipomoea): 1 | Post-emergence action, Lolium ([1]; Lolium): 2 | Post-emergence action, Setaria ([1]; Setaria): 1 | Post-emergence action, Sinapis ([1]; Sinapis): 1 | Post-emergence action, Solanum ([1]; Solanum): 1 | Post-emergence action, Stellaria ([1]; Stellaria): 2 | pre-emergence action, Cyperus ([2]; Cyperus): 2 | pre-emergence action, Ipomoea ([2]; Ipomoea): 2 | pre-emergence action, Setaria ([2]; Setaria): 1 | pre-emergence action, Sinapis ([2]; Sinapis): 2 | pre-emergence action, Solanum ([2]; Solanum): 2 | pre-emergence action, Stellaria ([2]; Stellaria): 1
